36 compounds from ChEMBL document CHEMBL4002629, “Design, synthesis and biological evaluation of novel 3-substituted 4-anilino-coumarin derivatives as antitumor agents” (Bioorg Med Chem Lett, 2017) can be followed below.

One experiment relates to MCF7. Nature of the experiment: Antiproliferative activity against human MCF7 cells after 48 hrs by MTT assay. It counts as functional, cell-based. The conditions noted are these: MCF7, 48 h.
A further experiment deals with HCT-116. Nature of the experiment: Antiproliferative activity against human HCT116 cells after 48 hrs by MTT assay. It is filed as functional, cell-based. The conditions noted are these: HCT-116, 48 h. On the technique in general: Tetrazolium dyes change colour on reduction, which living cells bring about.
In the next experiment the test system is HepG2. Description: Antiproliferative activity against human HepG2 cells after 48 hrs by MTT assay. It counts as functional, cell-based. Conditions: HepG2, 48 h.
In the next experiment the test system is PANC-1. Nature of the experiment: Antiproliferative activity against human PANC1 cells after 48 hrs by MTT assay. It counts as functional, cell-based. Conditions: PANC-1, 48 h.
Experiment [1] is described as follows: Selectivity index, ratio of IC50 for HUVEC to IC50 for human MCF7 cells.
A short description of experiment [2]: Selectivity index, ratio of IC50 for HUVEC to IC50 for human PANC1 cells.
A further experiment has as its system HUVEC. Description: Antiproliferative activity against HUVEC after 48 hrs by MTT assay. It is filed as cell-based. The conditions noted are these: Homo sapiens.
Experiment [3] can be described thus: Selectivity index, ratio of IC50 for HUVEC to IC50 for human HCT116 cells.
A short description of experiment [4]: Selectivity index, ratio of IC50 for HUVEC to IC50 for human HepG2 cells.

A word on the IC50: it is the midpoint of a concentration-inhibition curve. A high value points to a need for much substance. As to `COc1ccc2c(Nc3ccc(F)cc3)c(C(=O)C(F)(F)F)c(=O)oc2c1`, the IC50 in the experiment on MCF7 worked out at 9.74 µM; with HCT-116 it was 11.7 µM; with HepG2 it was 8.26 µM; in the experiment with PANC-1, 12.2 µM.

As to `COc1ccc(-c2c(Nc3ccc(NC(C)=O)cc3)c3ccc(OC)cc3oc2=O)cc1`, the IC50 in the experiment with MCF7 is 85.8 µM; in the experiment with HepG2, above 100 µM.

As to `COc1ccc(-c2c(Nc3ccc(NC(C)=O)cc3)c3ccccc3oc2=O)cc1`, the 50% inhibitory concentration (IC50) with MCF7 and in the experiment on HepG2 was above 100 µM each time.

As for `COc1ccc2c(Nc3cc(OC)c(OC)c(OC)c3)c(C(=O)C(F)(F)F)c(=O)oc2c1`, the IC50 in the experiment on MCF7 was determined as 19.2 µM; in the experiment on HCT-116 it was 17 µM; with HepG2, 26.4 µM; in the experiment with PANC-1 it was 24.1 µM.

For `COc1ccc(-c2c(Nc3ccc4c(c3)OCO4)c3ccc(OC)cc3oc2=O)cc1`, the 50% inhibitory concentration (IC50) in the experiment on MCF7 and in the experiment with HepG2 was above 100 µM in each case.

For `COc1ccc(-c2c(Nc3ccc(F)cc3)c3ccc(O)cc3oc2=O)cc1`, the IC50 worked out at 71.5 µM with MCF7, 66.1 µM in the experiment with HCT-116, 65.6 µM in the experiment on HepG2 and 75 µM in the experiment with PANC-1.

As for `COc1ccc(Nc2c(-c3ccc(OC)cc3)c(=O)oc3cc(OC)ccc23)cc1`, the IC50 in the experiment with MCF7 came out at 39.2 µM; with HCT-116, 35.1 µM; with HepG2 it was 39.6 µM; in the experiment on PANC-1, 41 µM.

On to `COc1ccc2oc(=O)c(C(=O)C(F)(F)F)c(Nc3cc(OC)c(OC)c(OC)c3)c2c1`, for which the half-maximal inhibitory concentration (IC50) in the experiment on MCF7 turned out to be 15 µM; with HCT-116 it was 19.5 µM; in the experiment on HepG2 it was 12.3 µM; in the experiment on PANC-1, 23.8 µM.

`CCOc1ccc(Nc2c(-c3ccc(OC)cc3)c(=O)oc3cc(O)ccc23)cc1`: the half-maximal inhibitory concentration (IC50) with MCF7 worked out at 32.5 µM; with HCT-116 it was 46.1 µM; in the experiment on HepG2, 36.5 µM; with PANC-1, 43.6 µM.

As to `COc1ccc(-c2c(Nc3cc(OC)c(OC)c(OC)c3)c3ccc(O)cc3oc2=O)cc1`, the IC50 in the experiment on MCF7 is 56 µM; in the experiment with HCT-116, 64.2 µM; in the experiment with HepG2 it was 49.6 µM; in the experiment with PANC-1, 63.9 µM.

On to `COc1ccc(-c2c(Nc3ccc(C)cc3)c3ccccc3oc2=O)cc1`, for which the concentration for half-maximal inhibition (IC50) with MCF7 was 65.3 µM; in the experiment with HCT-116, 64.8 µM; in the experiment with HepG2 it was 59.4 µM; in the experiment on PANC-1 it was 66.1 µM.

With `COc1ccc(-c2c(Nc3cc(OC)c(OC)c(OC)c3)c3ccccc3oc2=O)cc1`, the IC50 with MCF7 came to 82.3 µM; with HCT-116 it was 63.5 µM; with HepG2 it was 77.3 µM; in the experiment on PANC-1, 77.6 µM.

As for `COc1ccc(-c2c(Nc3cccc(C(F)(F)F)c3)c3ccc(O)cc3oc2=O)cc1`, the half-maximal inhibitory concentration (IC50) was determined as 49.1 µM with MCF7, 55.9 µM in the experiment on HCT-116, 53.6 µM in the experiment with HepG2 and 67.2 µM in the experiment with PANC-1.

Consider `COc1ccc(-c2c(Nc3ccc(C)cc3)c3ccc(OC)cc3oc2=O)cc1`, for which the 50% inhibitory concentration (IC50) in the experiment on MCF7 turned out to be 66.9 µM; in the experiment with HCT-116 it was 82.4 µM; with HepG2 it was 74.4 µM; in the experiment on PANC-1, 76.5 µM.

Take `COc1ccc(-c2c(Nc3ccc4c(c3)OCO4)c3ccccc3oc2=O)cc1`: the IC50 with MCF7 and in the experiment with HepG2 was above 100 µM throughout.

On to `CCOc1ccc(Nc2c(-c3ccc(OC)cc3)c(=O)oc3ccccc23)cc1`, for which the IC50 in the experiment with MCF7 stood at 30.7 µM; with HCT-116, 29.5 µM; in the experiment with HepG2, 31.3 µM; in the experiment on PANC-1 it was 32.9 µM.

On to `CCOc1ccc(Nc2c(-c3ccc(OC)cc3)c(=O)oc3cc(OC)ccc23)cc1`, for which the half-inhibitory concentration (IC50) in the experiment on MCF7 turned out to be 24.3 µM; with HCT-116, 33 µM; in the experiment on HepG2 it was 31.2 µM; in the experiment with PANC-1 it was 36.1 µM.

`COc1ccc2c(Nc3ccc4c(c3)OCO4)c(C(=O)C(F)(F)F)c(=O)oc2c1`: the 50% inhibitory concentration (IC50) in the experiment on MCF7 turned out to be 37.4 µM; in the experiment on HCT-116, 12.5 µM; with HepG2 it was 10.5 µM; in the experiment on PANC-1 it was 15.8 µM.

Take `O=c1[nH]cc(F)c(=O)[nH]1` [FLUOROURACIL]: the IC50 worked out at 38.3 µM in the experiment with HCT-116 and 47.8 µM with PANC-1.

With `COc1ccc(Nc2c(-c3ccc(OC)cc3)c(=O)oc3ccccc23)cc1`, the 50% inhibitory concentration (IC50) in the experiment on MCF7 stood at 34.6 µM; with HCT-116, 36.6 µM; in the experiment with HepG2, 35.2 µM; in the experiment on PANC-1, 37.5 µM.

Consider `COc1ccc(Nc2c(C(=O)C(F)(F)F)c(=O)oc3cc(OC)ccc23)cc1`, for which the IC50 turned out to be 55.7 µM with MCF7, 61.2 µM in the experiment on HCT-116, 38.4 µM with HepG2 and 47.5 µM in the experiment with PANC-1.

For the compound `COc1ccc(-c2c(Nc3ccc(C)c(O)c3)c3ccc(OC)cc3oc2=O)cc1`, the IC50 stood at 34.4 µM in the experiment with MCF7, 26.5 µM with HCT-116, 22.5 µM with HepG2 and 31.3 µM in the experiment on PANC-1.

With `COc1ccc(-c2c(Nc3ccc(C)c(O)c3)c3ccccc3oc2=O)cc1`, the IC50 in the experiment on MCF7 was found to be 12.1 µM; in the experiment on HCT-116 it was 12.3 µM; with HepG2 it was 10.2 µM; in the experiment with PANC-1, 9.75 µM.

With `COc1ccc(-c2c(Nc3ccc(C)c(O)c3)c3ccc(O)cc3oc2=O)cc1`, the concentration for half-maximal inhibition (IC50) with MCF7 is above 100 µM; in the experiment with HepG2, above 75.3 µM.

Turning to `COc1ccc(Nc2c(C(=O)C(F)(F)F)c(=O)oc3ccc(OC)cc23)cc1`, the IC50 with MCF7 and in the experiment on HepG2 was above 100 µM in each case.

In the case of `COc1ccc(-c2c(Nc3ccc(NC(C)=O)cc3)c3ccc(O)cc3oc2=O)cc1`, the IC50 in the experiment on MCF7 and with HepG2 was above 100 µM in each case.

In the case of `COc1ccc(-c2c(Nc3ccc(F)cc3)c3ccc(OC)cc3oc2=O)cc1`, the IC50 in the experiment with MCF7 and in the experiment on HepG2 was above 100 µM in each case.

Consider `COc1ccc(-c2c(Nc3ccc4c(c3)OCO4)c3ccc(O)cc3oc2=O)cc1`, for which the half-inhibitory concentration (IC50) with MCF7 came out at 89.5 µM; in the experiment with HCT-116, 41.2 µM; in the experiment with HepG2, 79 µM; in the experiment with PANC-1, 48.2 µM.

For `COc1ccc2oc(=O)c(C(=O)C(F)(F)F)c(Nc3ccc(C)c(O)c3)c2c1`, the IC50 in the experiment with MCF7 worked out at 20.1 µM; in the experiment on HCT-116 it was 4.62 µM; in the experiment with HepG2, 6.71 µM; in the experiment on HUVEC it was 29.4 µM; in the experiment with PANC-1, 5.62 µM. Moreover, the “Ratio IC50” value in experiment [1] was determined as 1.46; in [2], 5.23; in experiment [3], 6.37; in [4], 4.39.

In the case of `COc1ccc(Nc2c(-c3ccc(OC)cc3)c(=O)oc3cc(O)ccc23)cc1`, the IC50 in the experiment on MCF7 was above 100 µM; in the experiment with HepG2 it was 78.8 µM.

Regarding `COc1ccc(-c2c(Nc3ccc(F)cc3)c3ccccc3oc2=O)cc1`, the IC50 in the experiment with MCF7 came out at 38.5 µM; in the experiment on HCT-116, 39.4 µM; in the experiment on HepG2 it was 35.5 µM; with PANC-1, 32 µM.

On to `COc1ccc(-c2c(Nc3ccc(C)cc3)c3ccc(O)cc3oc2=O)cc1`, for which the concentration for half-maximal inhibition (IC50) is 85.5 µM with MCF7 and 88.3 µM with HepG2.

As for `COc1ccc(-c2c(Nc3cc(OC)c(OC)c(OC)c3)c3ccc(OC)cc3oc2=O)cc1`, the IC50 worked out at 89.5 µM in the experiment with MCF7 and 84.3 µM with HepG2.

Regarding `COc1ccc(-c2c(Nc3cccc(C(F)(F)F)c3)c3ccccc3oc2=O)cc1`, the half-maximal inhibitory concentration (IC50) in the experiment with MCF7 was determined as 21.6 µM; in the experiment on HCT-116 it was 55.7 µM; in the experiment on HepG2, 66.4 µM; in the experiment with PANC-1, 49.1 µM.

On to `COc1ccc2oc(=O)c(C(=O)C(F)(F)F)c(Nc3ccc(F)cc3)c2c1`, for which the IC50 in the experiment on MCF7 and with HepG2 was above 100 µM each time.

On to `COc1ccc(-c2c(Nc3cccc(C(F)(F)F)c3)c3ccc(OC)cc3oc2=O)cc1`, for which the concentration for half-maximal inhibition (IC50) in the experiment with MCF7 worked out at 36.2 µM; in the experiment on HCT-116, 41.2 µM; in the experiment on HepG2, 57.2 µM; with PANC-1, 39.5 µM.
